Reference: ChEMBL document CHEMBL4619762, “Exploring the Sequence Diversity of Cyclotides from Vietnamese Viola Species” (J Nat Prod, 2020)
Bridge positions count the residues as written; N and C are the ends. Peptide text beside a SMILES is read from it.

Columns and labels:
PC-3 = test: Cytotoxicty against human PC3 cells after 24 hrs by MTT assay; type: functional, cell-based; details: PC-3, 24 h
HeLa = test: Cytotoxicty against human HeLa cells after 24 hrs by MTT assay; type: functional, cell-based
HUVEC = test: Cytotoxicty against HUVEC after 24 hrs by MTT assay; type: cell-based; details: Homo sapiens
Erythrocyte = test: Hemolytic activity in human red blood cells after 1 hr; type: ADME, cell-based

SMILES | IC50 (PC-3) | IC50 (HeLa) | IC50 (HUVEC) | IC50 (Erythrocyte)
CC(C)C[C@@H]1NC(=O)CNC(=O)[C@H](CC(N)=O)NC(=O)[C@H](CCCNC(=N)N)NC(=O)[C@H]([C@@H](C)O)NC(=O)[C@@H]2CSSC[C@@H]3NC(=O)[C@H]([C@@H](C)O)NC(=O)CNC(=O)CNC(=O)[C@H](C(C)C)NC(=O)[C@@H]4CSSC[C@H](NC(=O)[C@H](CO)NC(=O)[C@H](CSSC[C@H](NC(=O)[C@H](C(C)C)NC(=O)[C@@H]5CCCN5C1=O)C(=O)NCC(=O)N[C@@H](CCC(=O)O)C(=O)N[C@@H]([C@@H](C)O)C(=O)N4)NC(=O)CNC(=O)[C@@H]1CCCN1C(=O)[C@H]([C@@H](C)O)NC(=O)[C@H](CC(N)=O)NC3=O)C(=O)N[C@@H](CO)C(=O)N[C@@H](Cc1c[nH]c3ccccc13)C(=O)N1CCC[C@H]1C(=O)N[C@@H](C(C)C)C(=O)N2 | 3600 nM | 5200 nM | 4000 nM | ≥ 50000 nM
CC[C@H](C)[C@@H]1NC(=O)[C@@H]2CSSC[C@@H]3NC(=O)[C@H](C(C)C)NC(=O)[C@H](CCCCN)NC(=O)[C@H](CO)NC(=O)[C@H](CCCCN)NC(=O)[C@@H]4CSSC[C@H](NC(=O)[C@H](CO)NC(=O)[C@H](CCC(=O)O)NC(=O)CNC(=O)[C@H](CSSC[C@H](NC(=O)CNC(=O)[C@H](CC(C)C)NC(=O)[C@H](C)NC(=O)[C@H](C)NC(=O)[C@H]([C@@H](C)O)NC1=O)C(=O)N[C@H](CO)C(=O)N4)NC(=O)[C@@H]1CCCN1C(=O)[C@H]([C@@H](C)CC)NC(=O)CNC(=O)[C@H](CC(N)=O)NC(=O)[C@H](CCCNC(=N)N)NC(=O)[C@H](Cc1ccc(O)cc1)NC3=O)C(=O)N[C@@H](C(C)C)C(=O)N[C@@H](Cc1ccc(O)cc1)C(=O)N[C@@H]([C@@H](C)CC)C(=O)N1CCC[C@H]1C(=O)N2 | 500 nM | 500 nM | 400 nM | 11100 nM
CC[C@H](C)[C@@H]1NC(=O)[C@@H]2CSSC[C@@H]3NC(=O)[C@H](C(C)C)NC(=O)[C@H](CCCCN)NC(=O)[C@H](CO)NC(=O)[C@H](CCCCN)NC(=O)[C@@H]4CSSC[C@H](NC(=O)[C@H](CO)NC(=O)[C@H](CCC(=O)O)NC(=O)CNC(=O)[C@H](CSSC[C@H](NC(=O)CNC(=O)[C@@H](CC(C)C)NC(=O)[C@H](CC(C)C)NC(=O)[C@H]([C@@H](C)O)NC(=O)[C@H](CO)NC1=O)C(=O)N[C@@H](CO)C(=O)N4)NC(=O)[C@@H]1CCCN1C(=O)[C@H]([C@@H](C)CC)NC(=O)[C@H](C(C)C)NC(=O)CNC(=O)[C@H](CC(N)=O)NC(=O)[C@H](CCCNC(=N)N)NC(=O)[C@H](Cc1ccc(O)cc1)NC3=O)C(=O)N[C@@H](C(C)C)C(=O)N[C@@H](Cc1ccccc1)C(=O)N[C@@H]([C@@H](C)CC)C(=O)N1CCC[C@H]1C(=O)N2 | 1100 nM | 1800 nM | 1200 nM | –
CC[C@H](C)[C@@H]1NC(=O)[C@H](C)NC(=O)[C@H](CO)NC(=O)[C@H](CO)NC(=O)[C@H]([C@@H](C)CC)NC(=O)[C@@H]2CSSC[C@@H]3NC(=O)[C@H](C(C)C)NC(=O)[C@H](CCCCN)NC(=O)[C@H](CO)NC(=O)[C@H](CCCCN)NC(=O)[C@@H]4CSSC[C@H](NC(=O)[C@H](CO)NC(=O)[C@H](CCC(=O)O)NC(=O)CNC(=O)[C@H](CSSC[C@H](NC(=O)CNC1=O)C(=O)N[C@@H](CO)C(=O)N4)NC(=O)[C@@H]1CCCN1C(=O)[C@H]([C@@H](C)CC)NC(=O)CNC(=O)[C@H](CC(N)=O)NC(=O)[C@H](CCCNC(=N)N)NC(=O)[C@H](Cc1ccc(O)cc1)NC3=O)C(=O)N[C@@H](C(C)C)C(=O)N[C@@H](Cc1c[nH]c3ccccc13)C(=O)N[C@@H]([C@@H](C)CC)C(=O)N1CCC[C@H]1C(=O)N2 (cyclo(AIGCSCKSKVCYRNGIPCGESCVWIPCISS); disulfide 4-18, 6-22, 11-27) | 800 nM | 700 nM | 600 nM | –
CC[C@H](C)[C@@H]1NC(=O)[C@H](C)NC(=O)[C@H](C)NC(=O)[C@H](CO)NC(=O)[C@H]([C@@H](C)CC)NC(=O)[C@@H]2CSSC[C@@H]3NC(=O)[C@H](C(C)C)NC(=O)[C@H](CCCCN)NC(=O)[C@H](CO)NC(=O)[C@H](CCCCN)NC(=O)[C@@H]4CSSC[C@H](NC(=O)[C@H](CO)NC(=O)[C@H](CCC(=O)O)NC(=O)CNC(=O)[C@H](CSSC[C@H](NC(=O)CNC1=O)C(=O)N[C@@H](CO)C(=O)N4)NC(=O)[C@@H]1CCCN1C(=O)[C@H]([C@@H](C)CC)NC(=O)CNC(=O)[C@H](CC(N)=O)NC(=O)[C@H](CCCNC(=N)N)NC(=O)[C@H](Cc1ccc(O)cc1)NC3=O)C(=O)N[C@@H](C(C)C)C(=O)N[C@@H](Cc1c[nH]c3ccccc13)C(=O)N[C@@H]([C@@H](C)CC)C(=O)N1CCC[C@H]1C(=O)N2 [CYCLOVIOLACIN O13] (cyclo(AAIGCSCKSKVCYRNGIPCGESCVWIPCIS); disulfide 5-19, 7-23, 12-28) | 600 nM | 700 nM | 500 nM | 14900 nM
